In PubChem BioAssay (NCI):
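Test compounds were applied to cells in 96-well plates for 48 hours at 5 doses. At the GI50, growth is halved. TGI: concentration producing complete growth inhibition.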

How the values were obtained:
Assay in all cases: NCI-60 cell line screen, 48 h
[1] = tested on: HCT-15 colon
[2] = tested on: RPMI-8226 leukemia
[3] = tested on: A549 NSCLC
[4] = tested on: OVCAR-4 ovarian
[5] = tested on: RXF 393 renal
[6] = tested on: UACC-62 melanoma
[7] = tested on: KM12 colon
[8] = tested on: HCT-116 colon
[9] = tested on: NCI-H460 lung
[10] = tested on: SF-539 CNS

| Structure (SMILES) | GI50 [1] [µM] | TGI [1] [µM] | GI50 [2] [µM] | TGI [2] [µM] | GI50 [3] [µM] | TGI [3] [µM] | GI50 [4] [µM] | TGI [4] [µM] | GI50 [5] [µM] | TGI [5] [µM] | GI50 [6] [µM] | TGI [6] [µM] | GI50 [7] [µM] | TGI [7] [µM] | GI50 [8] [µM] | TGI [8] [µM] | GI50 [9] [µM] | TGI [9] [µM] | GI50 [10] [µM] | TGI [10] [µM] |
| --- | --- | --- | --- | --- | --- | --- | --- | --- | --- | --- | --- | --- | --- | --- | --- | --- | --- | --- | --- | --- |
| CCOC(=O)c1ccc2c(c1)[n+](=O)c(C(C)=O)c(C(F)(F)F)n2[O-] | 1.4 | 3.22 | 1.45 | 4 | 2.04 | 4.39 | 1.36 | 3.22 | 2.15 | 5.77 | 1.49 | 3.46 | 1.47 | 2.89 | 1.39 | 3.34 | 1.46 | 2.86 | 1.71 | 3.31 |
| O=C(CC(=O)c1cccc(Cl)c1)c1cccc(Cl)c1 | 1.86 | > 100 | 1.45 | > 100 | 4.68 | > 100 | 1.9 | > 100 | 3.69 | > 100 | 2.82 | > 100 | 3.02 | > 100 | 1.15 | > 100 | 0.95 | > 100 | 2.91 | > 100 |
| Nc1nc(N)c2cc(Sc3cccc(C(F)(F)F)c3)ccc2n1 | – | 12.7 | – | 5.43 | – | 13.2 | – | 18.6 | 1.01 | 2.53 | – | 5.49 | – | 11.3 | – | 1.33 | – | 4.77 | – | 13.9 |
| COc1cc(NCCN=C(N)NC(N)=NC(C)C)c2ncccc2c1 | > 86 | > 100 | 15.5 | > 76.4 | 37.3 | > 100 | 0.0708 | 1.23 | > 38.5 | > 100 | 18.9 | 94.6 | 3.53 | > 41.2 | 3.63 | > 100 | 5.67 | > 57.6 | 4.06 | 20 |
| CNS(=O)(=O)OCC1OC(n2cnc3c(N)ncnc32)C(O)C1O (stereo unspecified) | > 100 | > 100 | > 100 | > 100 | > 100 | > 100 | > 100 | > 100 | > 100 | > 100 | > 100 | > 100 | > 100 | > 100 | > 100 | > 100 | > 100 | > 100 | > 100 | > 100 |
| Cc1cc(=O)[nH]c(CNC(=O)c2cccc(C(=O)NCc3cc(=O)[nH]c(C)n3)c2)n1 | – | > 100 | – | > 100 | – | > 100 | – | > 100 | – | > 100 | – | > 100 | – | > 100 | – | > 100 | – | > 100 | – | > 100 |
| CCOC(=O)C1([Se]c2ccccc2)CCCC1=O (stereo unspecified) | – | 25.9 | – | 55.4 | – | > 100 | – | 36.8 | – | 21.3 | – | 35.2 | – | > 100 | – | 30.9 | – | > 100 | – | 43.6 |
| COc1cc2c(cc1C1=NC(C)(C)CO1)OCO2 | – | > 100 | – | > 100 | – | > 100 | – | > 100 | – | > 100 | – | > 100 | – | > 100 | – | > 100 | – | > 100 | – | > 100 |
